In article PMC10960472 (Veterinary Research, 2024):
Converted amounts (≈) assume the structure as drawn. Where two headings read alike, the source gives them in different places. No end group written: not given here.

Tests used:
E. coli PCN033 [1] = test system: E. coli PCN033
E. coli RS218 [2] = test system: E. coli RS218
E. coli RS218 [3] = assay: microbe, parasite or virus in culture; conditions: Escherichia coli; for MBC: RS218, read-out: MBC, E. coli RS218, colony counting on LB agar from wells without visible growth; for MIC: RS218, read-out: MIC, E. coli RS218, MHB microdilution, 16-20 h at 37 °C, triplicate, lowest concentration inhibiting visual growth
PCN033 and RS218 = assay: MIC and MBC, summary over both strains; type: cell-based; conditions: Escherichia coli; for MBC: read-out: MBCs against PCN033 and RS218; for MIC: read-out: MICs against PCN033 and RS218
E. coli PCN033 [4] = assay: microbe, parasite or virus in culture; conditions: Escherichia coli; for MBC: PCN033, read-out: MBC, E. coli PCN033, colony counting on LB agar from wells without visible growth; for MIC: PCN033, read-out: MIC, E. coli PCN033, MHB microdilution, 16-20 h at 37 °C, triplicate, lowest concentration inhibiting visual growth
PCN033 [5] = assay: Time-kill curve assay; type: cell-based, Escherichia coli; conditions: sub-MBC: PMAP-36 1/4 MBC, tetracycline 1/16 MBC, gentamicin 1/8 MBC, 37 °C
[6] = test system: monocytes and macrophages in the PLF; assay: Flow cytometry of immune cells in peritoneal lavage fluid of infected mice; type: in vivo, mouse; conditions: 12 h post-infection, flow cytometry F4/80 and Gr-1, n = 3/group
Protocol: Mice were infected and treated with the test compounds as described above. After 12 h of infection, PLF was collected with 2 mL of sterile PBS, and the cells were centrifuged at 1800 rpm for 3 min. Then, the cells were blocked with 1 mL of 2% bovine serum albumin (BSA) in PBS for 30 min. An anti-mouse CD16/32 antibody (1:50) (BioLegend, CA, USA) was used to block nonspecific antibody binding in 0.5% BSA buffer for 30 min at 4 °C. Next, the cells were stained with PE-conjugated anti-mouse F4/80 antibody (1:50) (BioLegend, CA, USA) and FITC-conjugated anti-mouse Ly-6G/Ly-6C (Gr-1) antibody (1:200) (BioLegend, CA, USA) in 0.5% BSA for 30 min at 4 °C. Afterwards, the cells were washed twice with 150 μL of 2% BSA and analysed using flow cytometry.

PCN033 [7] = assay: Scanning electron microscopy of treated bacteria; type: cell-based, Escherichia coli; conditions: tetracycline 1/16 MBC, PMAP-36 1/4 MBC, alone or combined, MHB 37 °C
E. coli PCN033 [8] = assay: Checkerboard assay, fractional bactericidal concentration index; type: cell-based, Escherichia coli; conditions: PMAP-36 with tetracycline, against multidrug-resistant porcine ExPEC
PCN033 [9] = assay: Mouse model of systemic infection with PCN033; type: in vivo; conditions: C57BL/6 mice, 1 × 10^7 CFU PCN033 i.p., 30 mg/kg tetracycline i.p. 2 h after infection, n = 10/group
Protocol: Female C57BL/6 mice (6–8 weeks old) were obtained from Chongqing Lepitt Biotechnology Co., Ltd. This study was approved by the Institutional Animal Care and Use Committee (IACUC) of Southwest University, Chongqing, China (IACUC-20221022-18). […] Afterwards, different assays were performed as described below.
For the generation of survival curves, mice (n = 10/group) were monitored every 6 h until 72 h post-infection. Statistical analysis was conducted by the log rank (Mantel‒Cox) test in GraphPad Prism 8.0 software.
Mice (n = 5/group) were euthanized at 12 h post-infection. Then, organs (spleen, liver, and lung), blood and peritoneal lavage fluid (PLF) were collected and homogenized to determine the bacterial load via serial tenfold dilutions, plating on LB agar plates, and incubation at 37 °C overnight.
For histopathological observation, mice (n = 3/group) were euthanized at 12 h post-infection. Then, the lung tissues were fixed with 10% formaldehyde for over one week and embedded in paraffin for histological analysis.
For cytokine detection, the mice (n = 3/group) were euthanized at 12 h post-infection. Then, the expression of inflammatory cytokines (IL-1α, IL-1β, IL-6, IL-12 and TNF-α) in the lungs, liver, spleen, and PLF and the expression of chemokines (CXCL1 and CXCL2) in the PLF were determined using ELISA kits. […]

PCN033 [10] = type: cell-based, Escherichia coli
[11] = MHB microdilution, 16-20 h at 37 °C, triplicate, lowest concentration inhibiting visual growth
[12] = colony counting on LB agar from wells without visible growth

Row | Molecule | MIC, E. coli PCN033 (E. coli PCN033 [1]; [11]) | MBC, E. coli PCN033 (E. coli PCN033 [1]; [12]) | MBC (E. coli RS218 [3]) [µM] | MIC (E. coli RS218 [3]) [µM] | MIC (E. coli PCN033 [4]) [µM] | MBC, E. coli PCN033 (E. coli PCN033 [1]; PCN033) [µM] | MIC, E. coli PCN033 (E. coli PCN033 [1]; PCN033) [µM] | MBC, E. coli RS218 (E. coli RS218 [2]; RS218) [µM] | MIC, E. coli RS218 (E. coli RS218 [2]; RS218) [µM] | also measured
1 | CC1(C)S[C@@H]2[C@H](NC(=O)[C@H](N)c3ccccc3)C(=O)N2[C@H]1C(=O)O [Ampicillin, ampicillin] | 20,480 μM | 40,960 μM | 5 to 20 (≈ 1.75 to 6.99 µg/mL) | 2.5 to 10 (≈ 0.874 to 3.49 µg/mL) |  |  |  |  |  | MIC, E. coli PCN033 (E. coli PCN033 [1]; MHB microdilution, 16-20 h at 37 °C, triplicate, lowest concentration inhibiting visual growth, listed as ampicillin): greater than 160 μM; MBC, E. coli PCN033 (E. coli PCN033 [1]; colony counting on LB agar from wells without visible growth, listed as ampicillin): greater than 1280 μM; MIC, E. coli RS218 (E. coli RS218 [2]; [11]): 5 µM (≈ 1.75 µg/mL); MBC, E. coli RS218 (E. coli RS218 [2]; [12]): 10 µM (≈ 3.49 µg/mL)
2 | CO/N=C(\C(=O)N[C@@H]1C(=O)N2C(C(=O)O)=C(COC(C)=O)CS[C@H]12)c1csc(N)n1 [Cefotaxime, cefotaxime] |  |  | < 0.625 | < 0.625 | < 0.625 |  |  |  |  | MBC (PCN033 and RS218): < 0.625 µM; MIC (PCN033 and RS218): < 0.625 µM; MBC (E. coli PCN033 [4]): < 0.625 µM
3 | CNC(C)C1CCC(N)C(OC2C(N)CC(N)C(OC3OCC(C)(O)C(NC)C3O)C2O)O1 (stereo not shown) [Gentamicin, gentamicin] | 320 µM (≈ 153 µg/mL) | 1280 µM (≈ 611 µg/mL) | 5 to 20 (≈ 2.39 to 9.55 µg/mL) | 2.5 to 10 (≈ 1.19 to 4.78 µg/mL) | > 160 |  |  |  |  | MIC, E. coli RS218 (E. coli RS218 [2]; [11]): 2.5 µM (≈ 1.19 µg/mL); MBC, E. coli RS218 (E. coli RS218 [2]; [12]): 5 µM (≈ 2.39 µg/mL); MBC (E. coli PCN033 [4]): > 1280 µM; bactericidal activity within 120 min, agent alone (PCN033 [5]): did not show obvious bactericidal activity
4 | Cc1onc(-c2ccccc2)c1C(=O)N[C@@H]1C(=O)N2[C@@H]1SC(C)(C)[C@@H]2C(=O)O [Oxacillin, oxacillin] | 5120 µM (≈ 2060 µg/mL) | 10,240 μM | 1280 (≈ 514 µg/mL) | 320 (≈ 128 µg/mL) |  |  |  |  |  | MIC, E. coli PCN033 (E. coli PCN033 [1]; MHB microdilution, 16-20 h at 37 °C, triplicate, lowest concentration inhibiting visual growth, listed as oxacillin): greater than 160 μM
5 | [H]/N=C(/N)N[C@H]1[C@H](O)[C@@H](O)[C@H](O[C@@H]2O[C@@H](C)[C@](O)(C=O)[C@H]2O[C@@H]2O[C@@H](CO)[C@H](O)[C@@H](O)[C@@H]2NC)[C@@H](N/C(N)=N\[H])[C@@H]1O [Streptomycin, streptomycin] |  |  | > 41000 | 41000 (≈ 23800 µg/mL) | > 160 |  |  |  |  | 
6 | CN(C)[C@@H]1C(O)=C(C(N)=O)C(=O)[C@@]2(O)C(O)=C3C(=O)c4c(O)cccc4[C@@](C)(O)[C@H]3C[C@@H]12 [Tetracycline, tetracycline] |  |  | 5 (≈ 2.22 µg/mL) | 2.5 (≈ 1.11 µg/mL) | 160 (≈ 71.1 µg/mL) |  |  |  |  | number of monocytes and macrophages in the PLF [6]: only slightly increased; cell morphology under SEM (PCN033 [7]): slight cell shrinkage; MBC (PCN033 and RS218): 5 to 320 µM (≈ 2.22 to 142 µg/mL); MIC (PCN033 and RS218): 2.5 to 320 µM (≈ 1.11 to 142 µg/mL); decrease of MBC when used in combination (E. coli PCN033 [8]): 16 fold; time within which all treated mice died (PCN033 [9]): ≤ 24 h; MBC (E. coli PCN033 [4]): 160 µM (≈ 71.1 µg/mL); increase of the MIC of tetracycline, 10th generation (PCN033 [10]): 1.5 fold; change of the MIC of tetracycline after 30 generations (PCN033 [10]; PCN033 grown at sub-MIC: tetracycline 1/4 MIC, PMAP-36 1/4 MIC, or 1/8 MIC + 1/8 MIC, normalised to first generation): threefold
7 | GLLRKGGEKIGEKLKKIGQKIKNFFQKLVPQPEQ [CRAMP] | 10 µM | 20 µM |  |  |  |  |  |  |  | MIC, E. coli RS218 (E. coli RS218 [2]; [11]): 5 µM; MBC, E. coli RS218 (E. coli RS218 [2]; [12]): 20 µM
8 | GRFRRLRKKTRKRLKKIGKVLKWIPPIVGSIPLGCG [PMAP-36, porcine myeloid antimicrobial peptide 36] |  |  |  |  |  | 10 | 2.5 | 5 | 2.5 | 
9 | PIRNWWIRIWEWLNGIRKRLRQRSPFYVRGHLNVTSTPQP [CATH-B1] |  |  |  |  |  | > 40 | > 40 | > 40 | > 40 | 
10 | RFGRFLRKIRRFRPKVTITIQGSARF [CATH-2] |  |  |  |  |  | 20 | 10 | 10 | 5 | 
11 | RRRPRPPYLPRPRPPPFFPPRLPPRIPPGFPPRFPPRFP [PR-39] |  |  |  |  |  | 10 | 5 | 5 | 2.5 | 
12 | RVKRFWPLVPVAINTVAAGINLYKAIRRK [CATH-3] |  |  |  |  |  | 20 | 10 | 10 | 5 | 
